Data set [1] concerns α-toxin. Particulars: in vitro; cited from earlier work.
The conditions of data set [2]: mouse model; cited from earlier work.
Data set [3] concerns hla-lacZ fusion. Kind of data set: β-galactosidase chemiluminescent reporter assay of the chromosomal hla-lacZ fusion (hla expression). The class given is cell-based, S. aureus Wood 46-3. Particulars: for influence on hla expression (in words): subinhibitory concentrations of antibiotics. (In general: In a reporter assay the amount or activity of a reporter protein is the signal.)

Data set [4] deals with hla mRNA. Kind of data set: Northern blot analysis with intragenic hla probe. Particulars: 0.5 µg/ml methicillin versus without antibiotic.

For the molecule `CCOc1ccc2ccccc2c1C(=O)N[C@@H]1C(=O)N2[C@@H]1SC(C)(C)[C@@H]2C(=O)O` [nafcillin], the α-toxin production entry in data set [1] was “induces”. The “lethal activity of broth filtrates” value in data set [2] is recorded as “increases”.

As for `CC[C@H]1OC(=O)[C@H](C)[C@@H](O[C@H]2C[C@@](C)(OC)[C@@H](O)[C@H](C)O2)[C@H](C)[C@@H](O[C@@H]2O[C@H](C)C[C@H](N(C)C)[C@H]2O)[C@](C)(O)C[C@@H](C)C(=O)[C@H](C)[C@@H](O)[C@]1(C)O` [Erythromycin], the “influence on hla expression (in words)” value in data set [3] is “repressed”. On the same count and under the same terms, in the case of `Cc1onc(-c2ccccc2)c1C(=O)N[C@@H]1C(=O)N2[C@@H]1SC(C)(C)[C@@H]2C(=O)O` [Oxacillin] it was “dramatically increased”. `COc1cccc(OC)c1C(=O)N[C@@H]1C(=O)N2[C@@H]1SC(C)(C)[C@@H]2C(=O)O` [Methicillin]: in data set [3] (quarter of the MIC, postexponential phase), the “increase of the β-galactosidase activity compared to medium without antibiotic” value was “sixfold increase”. Besides, the “influence on hla expression (in words)” value in data set [3] is reported as “dramatically increased”. For the same molecule, the “amount of hla mRNA detected by Northern hybridization” value in data set [4] is “greater amount of hla mRNA”. Turning to `C[C@@H]1O[C@@H]1P(=O)(O)O` [Fosfomycin], the “influence on hla expression (in words)” value in data set [3] was “weak stimulatary effect”. Turning to `[Cl-].[Na+]` [NaCl, sodium chloride], the β-galactosidase production in data set [3] (0.8 M NaCl in LB broth, postexponential) was determined as 7800 RLU. In addition, the “effect on hla expression (in words)” value in data set [3] (NaCl above 1.6 M) is listed as “inhibitory”.

With `CN[C@H](CC(C)C)C(=O)N[C@H]1C(=O)N[C@@H](CC(N)=O)C(=O)N[C@H]2C(=O)N[C@H]3C(=O)N[C@H](C(=O)N[C@H](C(=O)O)c4cc(O)cc(O)c4-c4cc3ccc4O)[C@H](O)c3ccc(c(Cl)c3)Oc3cc2cc(c3O[C@@H]2O[C@H](CO)[C@@H](O)[C@H](O)[C@H]2O[C@H]2C[C@](C)(N)[C@H](O)[C@H](C)O2)Oc2ccc(cc2Cl)[C@H]1O` [Vancomycin], the “influence on hla expression (in words)” value in data set [3] was “weak stimulatary effect”. The same measure, in the same setting: in the case of `COc1cc(Cc2cnc(N)nc2N)cc(OC)c1OC` [Trimethoprim] it was “weak stimulatary effect”.
